Data as given in patent US20250230193A1, “CYCLIC COMPOUND HAVING SELECTIVE KRAS INHIBITORY EFFECT ON HRAS AND NRAS” (CHUGAI SEIYAKU KABUSHIKI KAISHA, priority 2022, published 2025).
*1 amine or outer side, *2 acyl side, *3 side chain or, on linkers, in order; H or OH if unused. Where a SMILES comes first, the peptide text is derived from it. Bridges are numbered along the chain shown (N, C = ends). [ ]: non-standard residue; d: D form. The star is where a group is joined. hPhe(3-Cl-4-CF3) = N[C@@H](CCc1ccc(C(F)(F)F)c(Cl)c1)C(=O)O; X28 = C#CCN([C@@H](Cc1ccc(C(F)(F)F)cc1)C(=O)[*:2])[*:1]; NEtPhe(4-Me) = CCN[C@@H](Cc1ccc(C)cc1)C(=O)O; NMeGly(cPent) = CN[C@H](C(=O)O)C1CCCC1; NMeD = CN[C@@H](CC(=O)O)C(=O)O; NMeL = CN[C@@H](CC(C)C)C(=O)O; Morpholide = C1CN(*)CCO1; NMeA = CN[C@@H](C)C(=O)O; Ac5c = NC1(C(=O)O)CCCC1; Aze = O=C(O)[C@@H]1CCN1; Sar = CNCC(=O)O

Key:
[1] = biological target: GDP-bound NRAS wild-type protein (Homo sapiens, UniProt P01111); assay: Binding to NRAS by surface plasmon resonance (SPR), Single Cycle Kinetics; conditions: for NRAS/KRAS (ratio of KD value with respect to NRAS to KD value with respect to KRAS): GDP-bound NRAS wild-type vs GDP-bound KRAS wild-type
[2] = biological target: GDP-bound HRAS wild-type protein (Homo sapiens, UniProt P01112); assay: Binding to HRAS by surface plasmon resonance (SPR), Single Cycle Kinetics; conditions: for HRAS/KRAS (ratio of KD value with respect to HRAS to KD value with respect to KRAS): GDP-bound HRAS wild-type vs GDP-bound KRAS wild-type
[3] = SPR, GDP-bound wild-type proteins

GDP-bound HRAS wild-type protein, sequence (P01112 whole entry): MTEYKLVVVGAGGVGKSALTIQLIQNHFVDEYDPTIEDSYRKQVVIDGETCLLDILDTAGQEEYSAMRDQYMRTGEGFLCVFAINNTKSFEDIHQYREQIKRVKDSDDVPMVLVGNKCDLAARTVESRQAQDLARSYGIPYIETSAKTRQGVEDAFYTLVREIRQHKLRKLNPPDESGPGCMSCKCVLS
GDP-bound NRAS wild-type protein, sequence (P01111 whole entry): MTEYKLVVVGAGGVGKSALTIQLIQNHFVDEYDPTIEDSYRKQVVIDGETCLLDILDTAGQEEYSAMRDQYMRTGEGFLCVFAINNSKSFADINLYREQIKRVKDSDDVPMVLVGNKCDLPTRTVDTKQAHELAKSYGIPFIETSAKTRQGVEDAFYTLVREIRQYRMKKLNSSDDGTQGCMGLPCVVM

SMILES | NRAS/KRAS (ratio of KD value with respect to NRAS to KD value with respect to KRAS) ([1]; SPR) | HRAS/KRAS (ratio of KD value with respect to HRAS to KD value with respect to KRAS) ([2]; SPR) | NRAS/KRAS (ratio of KD for GDP-bound NRAS wild-type to KD for KRAS) ([1]; SPR) | HRAS/KRAS (ratio of KD for GDP-bound HRAS wild-type to KD for KRAS) ([2]; SPR) | also measured
CCC[C@H]1C(=O)N[C@@H]([C@@H](C)CC)C(=O)N2CCC[C@H]2C(=O)N(C)[C@H]2C/C=C\CCN(C2=O)[C@@H](Cc2ccc(C)cc2)C(=O)N(C)CC(=O)N[C@@H](CCc2ccc(C(F)(F)F)c(OC)c2)C(=O)N2C[C@H](OCC)C[C@H]2C(=O)N(C)C2(CCC2)C(=O)N(C)[C@@H](C2CCCC2)C(=O)N(C)[C@H](C(=O)N2CCCC2)CC(=O)N1C [PP3102, (1S,4S,10S,13S,17S,20S,26S,28R,32S,38S,42Z)-20-cyclopentyl-28-ethoxy-32-[2-[3-methoxy-4-(trifluoromethyl)phenyl]ethyl]-2,14,18,21,24,36-hexamethyl-10-[(1S)-1-methylpropyl]-13-propyl-38-(p-tolylmethyl)-17-(pyrrolidine-1-carbonyl)spiro[2,8,11,14,18,21,24,30,33,36,39-undecazatetracyclo[37.5.1.0^4,8.0^26,30]pentatetracont-42-ene-23,1′-cyclobutane]-3,9,12,15,19,22,25,31,34,37,45-undecone] |  |  |  |  | NRAS/KRAS (ratio of KD value with respect to GDP-bound NRAS wild-type protein to KD value with respect to KRAS) [1, 3]: A (a compound having 10 or more and less than 20 is denoted as A); HRAS/KRAS (ratio of KD value with respect to GDP-bound HRAS wild-type protein to KD value with respect to KRAS) [2, 3]: A (a compound having 10 or more and less than 20 is denoted as A)
CC[C@H](C)[C@@H]1NC(=O)[C@H](CC)N(C)C(=O)C[C@@H](C(=O)N(C)C)N(C)C(=O)[C@H](C2CCCC2)N(C)C(=O)C2(CCC2)NC(=O)[C@@H]2CC(F)(F)CN2C(=O)[C@H](CCc2cc(F)c(C(F)(F)F)c(F)c2)NC(=O)CN(C)C(=O)[C@H](Cc2ccc(C(F)(F)F)cc2)N2CC/C=C\C[C@@H](C2=O)N(C)C(=O)CN(C)C1=O [PP1129] | A (a compound having 10 or more and less than 20 is denoted as A) | B (a compound having 3 or more and less than 10 is denoted as B) |  |  | 
CC[C@H](C)[C@@H]1NC(=O)[C@H](CC(C)C)N(C)C(=O)C[C@@H](C(=O)N2CCOCC2)N(C)C(=O)[C@H](CC(C)C)N(C)C(=O)C2(CCCC2)NC(=O)[C@@H]2CCCN2C(=O)[C@H](CCc2ccc(C(F)(F)F)c(Cl)c2)NC(=O)CN(C)C(=O)[C@H](Cc2ccc(C)cc2)N(CC)C(=O)[C@@H]2CCN2C(=O)[C@H](C)N(C)C1=O [PP0016] ([NMeL]I[NMeA][Aze][NEtPhe(4-Me)][Sar][hPhe(3-Cl-4-CF3)]P[Ac5c][NMeL][NMeD]-Morpholide; lactam N-11) |  |  | C (A compound having a KD ratio of 0.1 or more and less than 3 is denoted as C) | C (A compound having a KD ratio of 0.1 or more and less than 3 is denoted as C) | 
C#CCN1C(=O)CN(C)C(=O)CN(C)C(=O)[C@H]([C@@H](C)CC)NC(=O)[C@H](CC(C)C)N(C)C(=O)C[C@@H](C(=O)N2CCOCC2)N(C)C(=O)[C@H](C2CCCC2)N(C)C(=O)C2(CCCC2)NC(=O)[C@@H]2CCCN2C(=O)[C@H](CCc2ccc(C(F)(F)F)c(Cl)c2)NC(=O)CN(C)C(=O)[C@@H]1Cc1ccc(C(F)(F)F)cc1 [PP0130] ([NMeL]I[Sar][Sar][X28][Sar][hPhe(3-Cl-4-CF3)]P[Ac5c][NMeGly(cPent)][NMeD]-Morpholide; lactam N-11) |  |  | C (A compound having a KD ratio of 0.1 or more and less than 3 is denoted as C) | C (A compound having a KD ratio of 0.1 or more and less than 3 is denoted as C) | 
CCO[C@@H]1C[C@H]2C(=O)NC3(CC(F)(F)C3)C(=O)N(C)[C@@H](C3CCCC3)C(=O)N(C)[C@H](C(=O)N3CCOCC3)CC(=O)N(C)[C@@H](CC(C)C)C(=O)N[C@@H]([C@@H](C)CC)C(=O)N(C)CC(=O)N(C)[C@H]3CC=C(C)CN(C3=O)[C@@H](Cc3ccc(C(F)(F)F)cc3)C(=O)N(C)CC(=O)N[C@@H](CCc3cc(F)c(C(F)(F)F)c(F)c3)C(=O)N2C1 [PP0828] | C (A compound having a KD ratio of 0.1 or more and less than 3 is denoted as C) | C (A compound having a KD ratio of 0.1 or more and less than 3 is denoted as C) |  |  | 
CC[C@H](C)[C@@H]1NC(=O)[C@@H]2CCC/C=C/c3ccc(cc3)C[C@@H](C(=O)N(C)CC(=O)N[C@@H](CCc3ccc(Cl)c(Cl)c3)C(=O)N3C[C@H](OC(C)C)C[C@H]3C(=O)NC3(CC(C)(C)C3)C(=O)N(C)[C@@H](C3CCCC3)C(=O)N(C)[C@H](C(=O)N(C)CC)CC(=O)N2C)N2CC/C=C\C[C@@H](C2=O)N(C)C(=O)CN(C)C1=O [PP2595] |  |  |  |  | NRAS/KRAS (ratio of KD value with respect to GDP-bound NRAS wild-type protein to KD value with respect to KRAS) ([1]; class symbols): A (a compound having 10 or more and less than 20 is denoted as A); HRAS/KRAS (ratio of KD value with respect to GDP-bound HRAS wild-type protein to KD value with respect to KRAS) ([2]; class symbols): B (a compound having 3 or more and less than 10 is denoted as B)
